Values after ≈ are worked out from the molar mass of the structure shown.
Assays:
Test in all cases: In vitro antibacterial evaluation: minimum inhibitory concentration (MIC), broth dilution method
Assay type in all cases: cell-based
Escherichia coli = system: Escherichia coli
Protocol: (§1) The minimum inhibitory concentration (MIC), the lowest concentration of the antibiotic which inhibits growth of the test organism, is determined by the broth dilution method using Muller-Hinton II […] (Baltimore Biological Laboratories) following the recommendations of the National Committee for Clinical Laboratory Standards [Methods for dilution antimicrobial susceptibility tests for bacteria that grow aerobically, approved standard M7-A2, National Committee for Clinical Laboratory Standards, Villanova, Pa].
(§2) An inoculum level of 5×10^5 CFU/mL, and a range of antibiotic concentrations (64-0.06 μg/mL) is used. […] The test organisms include a spectrum of Gram-positive bacteria comprised of Staphylococcus sp., Streptococcus sp. and Enterococcus sp. These organisms include recent clinical isolates that are resistant to methicillin, penicillin and/or vancomycin.

Enterococcus sp. = system: Enterococcus sp.
Protocol: as §1, §2

Streptococcus sp. = system: Streptococcus sp.
Protocol: as §1, §2

Staphylococcus sp. = conditions: broth dilution, 18 hours at 35° C.
Protocol: as §1, §2

## CCOc1cc(C2OCC3OC(OC4C(CO)OC(Oc5ccc(CC6NC(=O)C(C(C)c7ccccc7)NC(=O)CNC(=O)C(CO)NC(=O)C(C(O)C7CNC(=N)N7C7OC(CO)C(O)C(O)C7O)NC(=O)C(C(O)C7CNC(=N)N7)NC6=O)cc5)C(O)C4O)C(O)C(O)C3O2)ccc1OC (stereo not drawn) [Example 152, Cyclo[glycyl-β-methylphenylalanyl-O-[4-O-[4,6-O-(3-ethoxy-4-methoxybenzylidene)hexopyranosyl)hexopyranosyl]tyrosyl-3-(2-iminoimidazolidin-4-yl)seryl-3-(3-hexopyranosyl-2-iminoimidazolidin-4-yl)serylseryl]]
Escherichia coli; strain ATCC 25922
  MIC Escherichia coli (ATCC 25922): >64 µg/mL
Escherichia coli; strain GC 4559
  MIC Escherichia coli (GC 4559): >64 µg/mL
Escherichia coli; strain GC 4560
  MIC Escherichi coli (GC 4560): 8 µg/mL (≈ 5.49 µM)
Enterococcus sp.; strain ATCC 29212
  MIC Enterococcus faecalis (ATCC 29212): 32 µg/mL (≈ 22 µM)
Enterococcus sp.; strain GC 2242
  MIC Enterococcus faecalis (GC 2242): 32 µg/mL (≈ 22 µM)
Enterococcus sp.; strain GC 2243
  MIC Enterococcus faecium (GC 2243): 32 µg/mL (≈ 22 µM)
Enterococcus sp.; strain GC 2691
  MIC Enterococcus faecalis (GC 2691): 32 µg/mL (≈ 22 µM)
Enterococcus sp.; strain GC 3059
  MIC Enterococcus faecalis (GC 3059): 32 µg/mL (≈ 22 µM)
Enterococcus sp.; strain GC 4552
  MIC Enterococcus faecalis (GC 4552): 32 µg/mL (≈ 22 µM)
Enterococcus sp.; strain GC 4553
  MIC Enterococcus faecalis (GC 4553): 64 µg/mL (≈ 43.9 µM)
Enterococcus sp.; strain GC 4554
  MIC Enterococcus faecalis (GC 4554): 32 µg/mL (≈ 22 µM)
Enterococcus sp.; strain GC 4556
  MIC Enterococcus faecium (GC 4556): 32 µg/mL (≈ 22 µM)
Enterococcus sp.; strain GC 4557
  MIC Enterococcus faecium (GC 4557): 16 µg/mL (≈ 11 µM)
Enterococcus sp.; strain GC 4558
  MIC Enterococcus avium (GC 4558): 32 µg/mL (≈ 22 µM)
Enterococcus sp.; strain GC 6189
  MIC Enterococcus faecalis (GC 6189): 32 µg/mL (≈ 22 µM)
Streptococcus sp.; strain ATCC 6301
  MIC Streptococcus pneumoniae (ATCC 6301): 2 µg/mL (≈ 1.37 µM)
Streptococcus sp.; strain GC 1894
  MIC Streptococcus pneumoniae (GC 1894): 0.5 µg/mL (≈ 0.343 µM)
Streptococcus sp.; strain GC 4563
  MIC Streptococcus pyogenes (GC 4563): 4 µg/mL (≈ 2.74 µM)
Streptococcus sp.; strain GC 4564
  MIC Streptococcus agalactiae (GC 4564): 8 µg/mL (≈ 5.49 µM)
Streptococcus sp.; strain GC 4565
  MIC Streptococcus pneumoniae (GC 4565): 2 µg/mL (≈ 1.37 µM)
Staphylococcus sp.; 5×10^5 CFU/mL
  MIC Coagulase Negative Staphylococcus (GC 4547): 8 µg/mL (≈ 5.49 µM)
  MIC Coagulase Negative Staphylococcus (GC 4548): 8 µg/mL (≈ 5.49 µM)
  MIC Coagulase Negative Staphylococcus (GC 4549): 8 µg/mL (≈ 5.49 µM)
  MIC Coagulase Negative Staphylococcus (GC 4551): 16 µg/mL (≈ 11 µM)
  MIC Coagulase Negative Staphylococcus (GC 6257): 8 µg/mL (≈ 5.49 µM)
  MIC Staphylococcus aureus (ATCC 29213): 16 µg/mL (≈ 11 µM)
  MIC Staphylococcus aureus (GC 1131): 16 µg/mL (≈ 11 µM)
  MIC Staphylococcus aureus (GC 3051): 16 µg/mL (≈ 11 µM)
  MIC Staphylococcus aureus (GC 3053): 32 µg/mL (≈ 22 µM)
  MIC Staphylococcus aureus (GC 4541): 16 µg/mL (≈ 11 µM)
  MIC Staphylococcus aureus (GC 4542): 16 µg/mL (≈ 11 µM)
  MIC Staphylococcus aureus (GC 4544): 16 µg/mL (≈ 11 µM)
  MIC Staphylococcus aureus (GC 4545): 8 µg/mL (≈ 5.49 µM)
  MIC Staphylococcus aureus-SMITH (GC 4543): 8 µg/mL (≈ 5.49 µM)
  MIC Staphylococcus haemolyticus (GC 4546): 8 µg/mL (≈ 5.49 µM)
Staphylococcus sp.; strain ATCC 29213
  MIC Staphylococcus aureus (ATCC 29213): 16 µg/mL (≈ 11 µM)
Staphylococcus sp.; strain GC 1131
  MIC Staphylococcus aureus (GC 1131): 16 µg/mL (≈ 11 µM)
Staphylococcus sp.; strain GC 3051
  MIC Staphylococcus aureus (GC 3051): 16 µg/mL (≈ 11 µM)
Staphylococcus sp.; strain GC 3053
  MIC Staphylococcus aureus (GC 3053): 32 µg/mL (≈ 22 µM)
Staphylococcus sp.; strain GC 4541
  MIC Staphylococcus aureus (GC 4541): 16 µg/mL (≈ 11 µM)
Staphylococcus sp.; strain GC 4542
  MIC Staphylococcus aureus (GC 4542): 16 µg/mL (≈ 11 µM)
Staphylococcus sp.; strain GC 4543
  MIC Staphylococcus aureus-SMITH (GC 4543): 8 µg/mL (≈ 5.49 µM)
Staphylococcus sp.; strain GC 4544
  MIC Staphylococcus aureus (GC 4544): 16 µg/mL (≈ 11 µM)
Staphylococcus sp.; strain GC 4545
  MIC Staphylococcus aureus (GC 4545): 8 µg/mL (≈ 5.49 µM)
Staphylococcus sp.; strain GC 4546
  MIC Staphylococcus haemolyticus (GC 4546): 8 µg/mL (≈ 5.49 µM)
Staphylococcus sp.; strain GC 4547
  MIC Coagulase Negative Staphylococcus (GC 4547): 8 µg/mL (≈ 5.49 µM)
Staphylococcus sp.; strain GC 4548
  MIC Coagulase Negative Staphylococcus (GC 4548): 8 µg/mL (≈ 5.49 µM)
Staphylococcus sp.; strain GC 4549
  MIC Coagulase Negative Staphylococcus (GC 4549): 8 µg/mL (≈ 5.49 µM)
Staphylococcus sp.; strain GC 4551
  MIC Coagulase Negative Staphylococcus (GC 4551): 16 µg/mL (≈ 11 µM)
Staphylococcus sp.; strain GC 6257
  MIC Coagulase Negative Staphylococcus (GC 6257): 8 µg/mL (≈ 5.49 µM)

Reference: US8247211B2, “Glycopeptide antibiotics” (American Cyanamid Company, priority 2001, dated 2012)
